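1) Cells in 96-well plates. 2) Compound, 48 h, 5 concentrations. 3) Linear interpolation between surrounding doses. 4) Unreached endpoint = highest concentration. The concentration for 50% growth inhibition is given as GI50.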 Activity calls are given as the source filed them. No stated cut-off is given here; in the data, active = GI50 up to about 1.1 µM and inactive = higher.
Assays:
Experiment in all cases: growth of human tumour cells (NCI), 48 h
[1] = system: 786-0
[2] = system: A498
[3] = system: A549
[4] = system: ACHN
[5] = system: BT-549
[6] = system: CAKI-1
[7] = system: CCRF-CEM
[8] = system: COLO 205
[9] = system: DU-145
[10] = system: HCC 2998
[11] = system: HCT-116
[12] = system: HCT-15
[13] = system: HL-60
[14] = system: HOP-62
[15] = system: HOP-92
[16] = system: HT-29
[17] = system: Hs-578T
[18] = system: IGROV-1
[19] = system: K562
[20] = system: KM12
[21] = system: LOX IMVI
[22] = system: M14
[23] = system: MCF7
[24] = system: MDA-MB-231
[25] = system: MDA-MB-435
[26] = system: MDA-N
[27] = system: MOLT-4
[28] = system: Malme-3M
[29] = system: NCI-H226
[30] = system: NCI-H23
[31] = system: NCI-H460
[32] = system: NCI-H522
[33] = system: NCI/ADR-RES
[34] = system: OVCAR-4
[35] = system: OVCAR-5
[36] = system: OVCAR-8
[37] = system: PC-3
[38] = system: RPMI-8226
[39] = system: RXF 393
[40] = system: SF-268
[41] = system: SF-295
[42] = system: SF-539
[43] = system: SK-MEL-28
[44] = system: SK-MEL-2
[45] = system: SK-MEL-5
[46] = system: SN12C
[47] = system: SNB-19
[48] = system: SNB-75
[49] = system: SR
[50] = system: SW-620
[51] = system: T47D
[52] = system: TK-10
[53] = system: U-251
[54] = system: UACC-257
[55] = system: UACC-62
[56] = system: UO-31
[57] = system: EKVX
[58] = system: OVCAR-3
[59] = system: SK-OV-3

Measured: GI50

CC(=O)OCC1OC(n2c3c(cc(C#N)c2=S)CCC3)C(OC(C)=O)C(OC(C)=O)C1OC(C)=O (stereo not given)
inactive: [1] > 100 µM | [2] > 100 µM | [3] > 100 µM | [4] > 100 µM | [5] > 100 µM | [6] > 100 µM | [7] > 100 µM | [8] > 100 µM | [9] > 100 µM | [10] > 100 µM | [11] > 100 µM | [13] > 100 µM | [14] > 100 µM | [15] > 100 µM | [16] > 100 µM | [17] > 100 µM | [18] > 100 µM | [19] > 100 µM | [20] > 100 µM | [21] > 100 µM | [22] > 100 µM | [23] > 100 µM | [24] > 100 µM | [25] > 100 µM | [26] > 100 µM | [27] 33.9 µM | [28] > 100 µM | [29] > 100 µM | [30] > 100 µM | [31] > 100 µM | [32] > 100 µM | [33] > 100 µM | [34] > 100 µM | [35] > 100 µM | [36] > 100 µM | [37] > 100 µM | [38] > 100 µM | [39] > 100 µM | [40] > 100 µM | [41] > 100 µM | [42] > 100 µM | [43] > 100 µM | [44] > 100 µM | [45] > 100 µM | [46] > 100 µM | [47] > 100 µM | [48] 68.1 µM | [49] 68.4 µM | [50] > 100 µM | [51] > 100 µM | [52] > 100 µM | [53] > 100 µM | [54] > 100 µM | [55] > 100 µM | [56] > 100 µM
> 100 µM: [12]

Cn1c2ccc(F)cc2c2ccc3c(c21)C(=O)C=CC3=O
13.7 µM: [12]
inactive: [1] 3.41 µM | [2] 55.7 µM | [3] > 64.1 µM | [4] 5.85 µM | [5] 14 µM | [6] 4.23 µM | [8] 7.08 µM | [9] 22 µM | [57] 16 µM | [10] 26.9 µM | [11] 6.73 µM | [14] > 66.5 µM | [15] 6.22 µM | [16] 19.5 µM | [17] 29.9 µM | [18] 14.6 µM | [19] 1.63 µM | [20] 31.5 µM | [21] 6.17 µM | [22] 12.1 µM | [23] 2.2 µM | [24] 4.09 µM | [25] 16.4 µM | [26] 13.3 µM | [28] 8.71 µM | [29] 20.3 µM | [30] 13.8 µM | [31] > 57.3 µM | [32] 2.15 µM | [33] 20.2 µM | [58] 7.21 µM | [34] 5.14 µM | [35] 43.6 µM | [36] 9.35 µM | [37] 8.67 µM | [38] 6.93 µM | [39] 3.28 µM | [40] 21 µM | [41] 66.1 µM | [42] 16.6 µM | [43] 13.8 µM | [44] 23.1 µM | [45] 16.9 µM | [59] 61 µM | [46] 15.4 µM | [47] 50.8 µM | [48] 33.3 µM | [49] 1.56 µM | [50] 2.66 µM | [51] 2.77 µM | [52] 4.56 µM | [53] 14.3 µM | [54] 9.86 µM | [55] 20.5 µM | [56] 7.52 µM
active: [7] 0.544 µM | [13] 0.598 µM | [27] 0.9 µM

Reference: ChEMBL document CHEMBL1201862, “PubChem BioAssay data set” (2004)
